According to PubChem BioAssay AID328 (DTP/NCI, 2004):
Values joined by “and” are separate entries in the source; they are usually repeats but may differ in a detail not shown here. Equal entries are not always repeated. Toxic doses and inconclusive results are not listed.

Test system: BDF1 mice, P388 leukemia ip, median survival T/C
Assay: NCI In Vivo Anticancer Drug Screen. Data for tumor model P388 Leukemia (intraperitoneal) in B6D2F1 (BDF1) mice
Conditions: endpoint: median survival time, higher = longer survival
Procedure, shortened: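 In tumour-bearing mice, survival after compound treatment is set against the vehicle group and given as a quotient.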

With `COC1C(O)CC(OC2CC(Oc3cc4cc5c(c(O)c4c(O)c3C)C(=O)[C@@H](OC3CC(OC4CC(OC6CC(C)(O)C(OC(C)=O)C(C)O6)C(O)C(C)O4)C(O)C(C)O3)[C@H]([C@H](OC)C(=O)[C@@H](O)[C@@H](C)O)C5)OC(C)C2OC(C)=O)OC1C` (stereo not given in full) the T/C (dose: 0.02 mg/kg/injection, schedule: Q01DX005 (ip), vehicle: saline) was 166 % of control, the T/C (dose: 0.03 mg/kg/injection, schedule: Q01DX001 (ip), vehicle: saline) was 109 % of control and the T/C (dose: 0.03 mg/kg/injection, schedule: Q01DX005 (ip), vehicle: saline) was 168 % of control. For the same molecule, the T/C (dose: 0.03 mg/kg/injection, schedule: Q01DX009 (ip), vehicle: saline) was 150 % of control, the T/C (dose: 0.05 mg/kg/injection, schedule: Q01DX005 (ip), vehicle: clinical formulation) was 183 % of control and the T/C (dose: 0.05 mg/kg/injection, schedule: Q01DX005 (ip), vehicle: saline) was 166 % of control and 183 % of control and 187 % of control. For the same molecule, the T/C (dose: 0.06 mg/kg/injection, schedule: Q01DX005 (ip), vehicle: saline) was 172 % of control, the T/C (dose: 0.06 mg/kg/injection, schedule: Q01DX009 (ip), vehicle: saline) was 172 % of control and the T/C (dose: 0.1 mg/kg/injection, schedule: Q01DX005 (ip), vehicle: clinical formulation) was 200 % of control. For the same molecule, the T/C (dose: 0.1 mg/kg/injection, schedule: Q01DX005 (ip), vehicle: saline) was 187 % of control (2×) and 193 % of control, the T/C (dose: 0.13 mg/kg/injection, schedule: Q01DX001 (oral), vehicle: saline) was 100 % of control and the T/C (dose: 0.13 mg/kg/injection, schedule: Q01DX001 (sc), vehicle: Klucel (hydroxypropylcellulose) (HPC)) was 100 % of control. For the same molecule, the T/C (dose: 0.13 mg/kg/injection, schedule: Q01DX005 (ip), vehicle: saline) was 177 % of control, the T/C (dose: 0.13 mg/kg/injection, schedule: Q01DX009 (ip), vehicle: saline) was 172 % of control and the T/C (dose: 0.13 mg/kg/injection, schedule: Q01DX010 (oral), vehicle: saline) was 100 % of control. The T/C (dose: 0.13 mg/kg/injection, schedule: Q01DX010 (sc), vehicle: Klucel (hydroxypropylcellulose) (HPC)) was 109 % of control, the T/C (dose: 0.15 mg/kg/injection, schedule: Q01DX005 (ip), vehicle: clinical formulation) was 225 % of control and the T/C (dose: 0.15 mg/kg/injection, schedule: Q01DX005 (ip), vehicle: saline) was 204 % of control. The T/C (dose: 0.2 mg/kg/injection, schedule: Q01DX005 (ip), vehicle: clinical formulation) was 170 % of control, the T/C (dose: 0.2 mg/kg/injection, schedule: Q01DX005 (ip), vehicle: saline) was 254 % of control and 260 % of control and 158 % of control and the T/C (dose: 0.25 mg/kg/injection, schedule: Q01DX001 (sc), vehicle: Klucel (hydroxypropylcellulose) (HPC)) was 100 % of control. The T/C (dose: 0.25 mg/kg/injection, schedule: Q01DX009 (ip), vehicle: saline) was 95 % of control, the T/C (dose: 0.25 mg/kg/injection, schedule: Q01DX010 (sc), vehicle: Klucel (hydroxypropylcellulose) (HPC)) was 95 % of control and the T/C (dose: 0.25 mg/kg/injection, schedule: Q04DX003 (ip), vehicle: saline) was 200 % of control. For the same molecule, the T/C (dose: 0.4 mg/kg/injection, schedule: Q01DX001 (ip), vehicle: saline) was 150 % of control, the T/C (dose: 0.5 mg/kg/injection, schedule: Q01DX001 (ip), vehicle: other) was 175 % of control and the T/C (dose: 0.5 mg/kg/injection, schedule: Q01DX001 (oral), vehicle: saline) was 95 % of control. For the same molecule, the T/C (dose: 0.5 mg/kg/injection, schedule: Q01DX001 (sc), vehicle: Klucel (hydroxypropylcellulose) (HPC)) was 109 % of control, the T/C (dose: 0.5 mg/kg/injection, schedule: Q01DX010 (oral), vehicle: saline) was 109 % of control and the T/C (dose: 0.5 mg/kg/injection, schedule: Q04DX003 (ip), vehicle: saline) was 100 % of control. For the same molecule, the T/C (dose: 0.8 mg/kg/injection, schedule: Q01DX001 (ip), vehicle: saline) was 170 % of control, the T/C (dose: 1.0 mg/kg/injection, schedule: Q01DX010 (oral), vehicle: saline) was 100 % of control and the T/C (dose: 1.6 mg/kg/injection, schedule: Q01DX001 (ip), vehicle: saline) was 162 % of control. For the same molecule, the T/C (dose: 2.0 mg/kg/injection, schedule: Q01DX001 (oral), vehicle: saline) was 109 % of control, the T/C (dose: 2.0 mg/kg/injection, schedule: Q01DX010 (oral), vehicle: saline) was 100 % of control and the T/C (dose: 0.9 micrograms/kg/injection, schedule: Q01DX010 (ip), vehicle: saline) was 90 % of control. The T/C (dose: 1.9 micrograms/kg/injection, schedule: Q01DX010 (ip), vehicle: saline) was 86 % of control, the T/C (dose: 3.8 micrograms/kg/injection, schedule: Q01DX010 (ip), vehicle: saline) was 100 % of control and the T/C (dose: 3.8 micrograms/kg/injection, schedule: Q03HX024 (ip), vehicle: saline) was 177 % of control. For the same molecule, the T/C (dose: 8.0 micrograms/kg/injection, schedule: Q01DX010 (ip), vehicle: saline) was 150 % of control, the T/C (dose: 16.0 micrograms/kg/injection, schedule: Q01DX010 (ip), vehicle: saline) was 160 % of control and the T/C (dose: 32.0 micrograms/kg/injection, schedule: Q01DX010 (ip), vehicle: saline) was 180 % of control and 195 % of control. For the same molecule, the T/C (dose: 60.0 micrograms/kg/injection, schedule: Q01DX010 (ip), vehicle: saline) was 154 % of control, the T/C (dose: 62.0 micrograms/kg/injection, schedule: Q01DX009 (ip), vehicle: other) was 150 % of control and the T/C (dose: 63.0 micrograms/kg/injection, schedule: Q01DX010 (ip), vehicle: saline) was 163 % of control and 185 % of control and 210 % of control. The T/C (dose: 125.0 micrograms/kg/injection, schedule: Q01DX001 (ip), vehicle: clinical formulation) was 154 % of control and 168 % of control and 181 % of control, the T/C (dose: 125.0 micrograms/kg/injection, schedule: Q01DX001 (ip), vehicle: water) was 213 % of control and the T/C (dose: 125.0 micrograms/kg/injection, schedule: Q01DX009 (ip), vehicle: other) was 166 % of control. The T/C (dose: 125.0 micrograms/kg/injection, schedule: Q01DX010 (ip), vehicle: saline) was 300 % of control and 209 % of control, the T/C (dose: 200.0 micrograms/kg/injection, schedule: Q01DX009 (ip), vehicle: saline) was 100 % of control and the T/C (dose: 250.0 micrograms/kg/injection, schedule: Q01DX001 (ip), vehicle: clinical formulation) was 186 % of control and 195 % of control and 200 % of control. For the same molecule, the T/C (dose: 250.0 micrograms/kg/injection, schedule: Q01DX001 (ip), vehicle: water) was 250 % of control, the T/C (dose: 500.0 micrograms/kg/injection, schedule: Q01DX001 (ip), vehicle: clinical formulation) was 236 % of control and 190 % of control and 213 % of control and the T/C (dose: 1000.0 micrograms/kg/injection, schedule: Q01DX001 (ip), vehicle: clinical formulation) was 231 % of control. For the same molecule, the T/C (dose: 2000.0 micrograms/kg/injection, schedule: Q01DX001 (ip), vehicle: clinical formulation) was 100 % of control.
